From patent US20200054671A1, “TREATMENT OF ANXIETY DISORDER AND AUGMENTATION OF ANTI-ANXIETY INTERVENTIONS BY ADMINISTRATION OF NOBLE GAS CONTAINING MIXTURES” (NOBILIS THERAPEUTICS, INC., priority 2016, published 2020)
“And” between values parts separate entries of the source, which are not always exact repeats. Equal entries are not always repeated.

Columns and labels:
[1] = system: patients with panic disorder; assay: Frequency of major and minor panic attacks; format: in vivo, human; conditions: for The frequency of major panic attacks 6 months after treatment, Mean / The frequency of major panic attacks 6 months after treatment, Median / Changes Minor Panic Attacs_V6_V1, Mean / Changes Minor Panic Attacs_V6_V1, Median / Changes_Major Panic Attacs_V6_V1, Mean / Changes_Major Panic Attacs_V6_V1, Median: per month; for Changes Minor Panic Attacs_V6_V1, Mean / Changes Minor Panic Attacs_V6_V1, Median / Changes_Major Panic Attacs_V6_V1, Mean / Changes_Major Panic Attacs_V6_V1, Median: vs before treatment
Experimental: (§1) This investigator-initiated study was performed under a prospective clinical trial protocol approved by the Institute of Mental Health and Addictology, which is accredited by the Ministry of Health of the Russian Federation to conduct clinical trials (#57689). Study conduct was in compliance with all ethical standards and good clinical practice. Ninety outpatients with a diagnosis of “panic disorder» (F41.0) according to ICD-10 were enrolled through the Institute of Mental Health and Addictology. Five patients dropped out of the study due to minor side effects, predominantly lightheadedness and headaches, and 4 patients dropped out of the study for unspecified reasons. As the intention to treat analysis was not utilized due to the open label design of the study, 81 patients with PD (49 women and 32 men), mean age was 35.2 years (range […]) were studied. Patients were randomized into 2 groups: with “pure” PD (group 1) and “comorbid” PD, when it was co-diagnosed with other mental illnesses (group 2). All patients with isolated PD (Group 1, n=42) received monotherapy with xenon at the aforementioned schedule, while the majority of patients (94.9%) with PD and comorbid conditions, which were predominantly depression (group 2, n=39), in addition to xenon administration continued treatment for comorbid psychiatric disorders, which mainly consisted of antidepressants (SSRIs and SNRIs). In these patients, the reason for xenon treatment was the increase in the frequency and severity of panic attacks despite ongoing treatment with stable pharmacotherapy of at least 3 to 6 months' duration.
(§2) Administration of xenon was performed through inhalation of xenon-oxygen mixtures that were escalated from 15%/85% to 30%/70% with titration increments of 5% per session. Each patient in the study underwent between 6 and 7 treatments with xenon-oxygen mixture. The first three sessions were carried out daily and from session 4 onward—every other day. The selected dosing regime and the composition of the gas mixtures were based on the historical evidence of safety of subanesthetic use of xenon in imaging.
(§3) Medical grade xenon (“medksenon»®, 99.9999%, manufacturer: Atommedcenter, Moscow, Russia) and medical grade oxygen in separate containers were admixed. Mixing and administration of gases in preset concentration and volume was accomplished with the use of the medical device MAGi-AMTS1, which enables the operator to adjust the concentration of xenon in the gas mixture, and which contains the electronic flow meter with a software module that allows for such adjustments. Administration of xenon-oxygen mixture to the patient was carried out via a face mask. Patients were asked to slowly inhale, holding breath for 5 to 10 seconds; exhale into the loop and after 35-40 seconds exhale outside the contour and breath in the new portion of gas mixture. Xenon inhalation lasted from 2.5 to 4 minutes, and the xenon consumption was capped at 3.0 liters per procedure. The patients were assessed subjectively by the provider, while the vital signs (pulse, blood pressure, oxygen saturation) were continuously monitored.
(§4) Patients were evaluated after each xenon inhalation and at 30 and 180 days after completion of treatment. To this end, we employed clinical psychopathological and clinical catamnestic methods, and psychometric scales that are widely used internationally to assess the treatment of mental disorders. Scale Assessment, Zung Self-Rating Anxiety Scale (SAS) was performed prior to starting therapy (V1), and at 1 and 6 months after treatment. According to this scale, SAS index of less than 45 points corresponds to the normal value, 45-59—to mild-to-moderate degree of anxiety, 60-74—to high degree of anxiety, more than 75—to an extremely high-level of anxiety. […]

[2] = system: patients with panic disorder; assay: Zung Self-Rating Anxiety Scale (SAS); format: in vivo, human
Experimental: as §1, §2, §3, §4

[3] = cited from earlier work
[4] = system: patients with panic disorder; assay: Hospital Anxiety and Depression Scale, anxiety subscale (HADS_T), open clinical trial of xenon inhalation; format: in vivo, human; conditions: for HADS-T, V6 − V1, mean paired difference: after 6 sessions vs baseline; for HADS_T total score: after 3 sessions (V3)
Experimental: as §1, §2, §3
Patients were evaluated after each xenon inhalation and at 30 and 180 days after completion of treatment. To this end, we employed clinical psychopathological and clinical catamnestic methods, and psychometric scales that are widely used internationally to assess the treatment of mental disorders. […]

[5] = system: patients with panic disorder; assay: Hospital Anxiety and Depression Scale, depression subscale (HADS_D); format: in vivo, human; conditions: for HADS_D: patients with “clinically severe depression”: end of the active phase of treatment
Experimental: as §1, §2
Medical grade xenon (“medksenon»®, 99.9999%, manufacturer: Atommedcenter, Moscow, Russia) and medical grade oxygen in separate containers were admixed. […] The patients were assessed subjectively by the provider, while the vital signs (pulse, blood pressure, oxygen saturation) were continuously monitored.
Patients were evaluated after each xenon inhalation and at 30 and 180 days after completion of treatment. […]

## [Xe] [xenon]
[1]; Total (n = 81)
  The frequency of minor panic attacks 6 months after treatment, Mean: .6 times/month
  The frequency of minor panic attacks 6 months after treatment, Median: .0 times/month
  The frequency of major panic attacks 6 months after treatment, Mean: .0
  The frequency of major panic attacks 6 months after treatment, Median: .0
  Changes Minor Panic Attacs_V6_V1, Mean: −42.7
  Changes Minor Panic Attacs_V6_V1, Median: −55.0
  Changes_Major Panic Attacs_V6_V1, Mean: −9.6
  Changes_Major Panic Attacs_V6_V1, Median: −7.0
[1]; both groups
  “major” panic attacks 6 months after treatment: absent
[1]; conclusion from HADS_T, CGI-I, CGI-S
  panic attacks after the 6th treatment: complete cessation of panic attacks
[1]; «Comorbid PD» (n = 39)
  The frequency of minor panic attacks 6 months after treatment, Mean: 1 times/month and 1.0 times/month
  The frequency of minor panic attacks 6 months after treatment, Median: .0 times/month
  The frequency of major panic attacks 6 months after treatment, Mean: .0
  The frequency of major panic attacks 6 months after treatment, Median: .0
  Changes Minor Panic Attacs_V6_V1, Mean: −40.7
  Changes Minor Panic Attacs_V6_V1, Median: −40.0
  Changes_Major Panic Attacs_V6_V1, Mean: −11.7
  Changes_Major Panic Attacs_V6_V1, Median: −12.0
[1]; «Pure PD» (n = 42)
  The frequency of minor panic attacks 6 months after treatment, Median: .0 times/month
  The frequency of major panic attacks 6 months after treatment, Mean: .0
  The frequency of major panic attacks 6 months after treatment, Median: .0
  Changes Minor Panic Attacs_V6_V1, Mean: −44.5
  Changes Minor Panic Attacs_V6_V1, Median: −55.0
  Changes_Major Panic Attacs_V6_V1, Mean: −7.7
  Changes_Major Panic Attacs_V6_V1, Median: −3.0
[2]; Group 1 (n=42)
  Zung SAS after 1 month − V1, mean paired difference: −36.131
  Zung SAS after 6 months − V1, mean paired difference: −38.214
[2]; Group 1, one month after treatment
  SAS total score: 36.5 points
[2]; Group 1, study follow up (6 months)
  SAS total score: 34.5
[2]; Group 2 (n=39)
  Zung SAS after 1 month − V1, mean paired difference: −17.308
  Zung SAS after 6 months − V1, mean paired difference: −16.154
[2]; Group 2, one month after treatment
  SAS total score: 46.8 points
[2]; Group 2, study follow up (6 months)
  SAS total score: 47.9
[3]; during inhalational anesthesia
  time at which end-expiratory xenon concentration reached a plateau: 7 min
  time to successful loading of xenon in the brain: approximately 15 minutes
[3]; inhalation
  half-time for equilibration between xenon concentration in arterial blood and at the site of action: 1.49 ± 0.04 min
[4]; Group 1 («pure» PD, n=42, xenon monotherapy)
  HADS-T, V6 − V1, mean paired difference: −11.214
[4]; Group 1
  HADS_T total score: 13.3
[4]; Group 2 («comorbid» PD, n=39)
  HADS-T, V6 − V1, mean paired difference: −11.436
[4]; Group 2
  HADS_T total score: 13.3
[4]; both groups, end of treatment (V6)
  HADS_T overall score category: norm
[5]; group 1, after 3 xenon treatments
  HADS_D: patients in whom “clinically severe depression” was absent: 90.5%
[5]; group 1
  HADS_D: patients with “clinically severe depression”: 2.4%
[5]; group 2, after 3 xenon treatments
  HADS_D: patients in whom “clinically severe depression” was present: 82.1%
[5]; group 2
  HADS_D: patients with “clinically severe depression”: 46.2%
